Measurements published in patent US9260425B2 (Genetech, Inc., priority 2011, dated 2016).

Target: Pim-1 (Homo sapiens (Human), UniProt P11309)
Test: Pim kinase binding activity assay (Example 901), PIM-1 enzyme, Caliper microfluidic peptide phosphorylation
Assay type: biochemical
Details: 20 pM PIM-1, 10 μM ATP, 1 μM FAM-peptide, 90 minutes at room temperature
Description: Pim Kinase Binding Activity
A fluorescent-labeled Pim-specific peptide substrate, was custom synthesized by American Peptide Company (Sunnyvale, Calif.). Reaction Buffer contained 10 mM HEPES, pH 7.2, 10 mM MgCl2, 0.01% Tween 20, 2 mM DTT. Termination Buffer contained 190 mM HEPES, pH 7.2, 0.015% Brij-35, 0.2% Coating Reagent 3 (Caliper Life Sciences, Hopkinton, Mass.), 20 mM EDTA. Separation Buffer contained 100 mM HEPES, pH 7.2, 0.015% Brij-35, 0.1% Coating Reagent 3, 1:200 Coating Reagent 8 (Caliper Life Sciences, Hopkinton, Mass.), 10 mM EDTA and 5% DMSO.
PIM reactions were carried out in a final volume of 10 μL per well in a 384-well plate. A standard enzymatic reaction, initiated by the addition of 5 μL 2×ATP and test compound to 5 μL of 2× enzyme and FAM-peptide, contained 20 pM PIM-1, 50 pM PIM-2, or 55 pM PIM-3, 1 μM FAM-peptide, and 10 μM ATP, in Reaction Buffer. After 90 minutes of incubation at room temperature, the phosphorylation reaction was stopped by the addition of 10 μL Termination Buffer. The product and substrate in each independent reaction were separated on a 12-sipper microfluidic chip (Caliper Life Sciences, Hopkinton, Mass.) run on a Caliper LC3000® (Caliper Life Sciences, Hopkinton, Mass.). The separation of product and substrate was optimized by choosing voltages and pressure using Caliper's Optimizer software (Hopkinton, Mass.). […] The product and substrate fluorophore were excited at 488 nm and detected at 530 nm. Substrate conversion was calculated from the electropherogram using HTS Well Analyzer software (Caliper Life Sciences, Hopkinton, Mass.). Ki values for the test compound were calculated.

Chain of Pim-1 (P11309 whole entry): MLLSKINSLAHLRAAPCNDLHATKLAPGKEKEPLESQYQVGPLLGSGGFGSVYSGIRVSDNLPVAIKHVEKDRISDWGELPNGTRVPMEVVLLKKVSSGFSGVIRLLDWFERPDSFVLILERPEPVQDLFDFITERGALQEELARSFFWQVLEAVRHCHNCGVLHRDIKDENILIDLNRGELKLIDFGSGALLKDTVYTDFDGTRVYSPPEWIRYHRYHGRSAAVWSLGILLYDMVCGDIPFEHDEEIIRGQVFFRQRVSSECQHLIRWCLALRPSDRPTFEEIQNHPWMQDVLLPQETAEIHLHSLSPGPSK

Structure (SMILES)	Ki
c1cncc(-c2cc3c(N4CCCC4)n[nH]c3cn2)c1 [Example 252, 5-(pyridin-3-yl)-3-(pyrrolidin-1-yl)-1H-pyrazolo[3,4-c]pyridine]	10 nM
C=C(C)c1ccc(-c2n[nH]c3cnc(-c4cnn(C)c4)cc23)nc1N1CCC[C@H](N)C1 [Example 414, (S)-1-(6-(5-(1-methyl-1H-pyrazol-4-yl)-1H-pyrazolo[3,4-c]pyridin-3-yl)-3-(prop-1-en-2-yl)pyridin-2-yl)piperidin-3-amine]	0.028 nM
c1cc(-c2n[nH]c3cnc(-c4cnn(CC5COC5)c4)cc23)nc(N2CCNCC2)c1 [Example 416, 5-(1-(oxetan-3-ylmethyl)-1H-pyrazol-4-yl)-3-(6-(piperazin-l-yl)pyridin-2-yl)-1H-pyrazolo[3,4-c]pyridine]	11.3 nM
Fc1ccccc1-c1n[nH]c2cnc(-c3cncc(NC4CCNCC4)c3)cc12 [Example 171, 5-(3-(2-fluorophenyl)-1H-pyrazolo[3,4-c]pyridin-5-yl)-N-(piperidin-4-yl)pyridin-3-amine]	2.42 nM
C=C(C)c1ccnc(-c2n[nH]c3cnc(-c4cnn(CC)c4)cc23)c1 [Example 500, 5-(1-ethyl-1H-pyrazol-4-yl)-3-(4-(prop-1-en-2-yl)pyridin-2-yl)-1H-pyrazolo[3,4-c]pyridine]	54.1 nM
Cn1cc(-c2cc3c(-c4cccc(-c5cnn(C)c5)n4)n[nH]c3cn2)cn1 [Example 184, 5-(1-methyl-1H-pyrazol-4-yl)-3-(6-(1-methyl-1H-pyrazol-4-yl)pyridin-2-yl)-1H-pyrazolo[3,4-c]pyridine]	0.502 nM
N[C@@H]1CN(c2cccc(-c3n[nH]c4cnc(-c5cccnc5)cc34)n2)CC[C@H]1F (relative stereo) [Example 453, trans-4-fluoro-1-(6-(5-(pyridin-3-yl)-1H-pyrazolo[3,4-c]pyridin-3-yl)pyridin-2-yl)piperidin-3-amine]	0.296 nM
NCCNc1cc(-c2n[nH]c3cnc(-c4cccnc4)cc23)ccn1 [Example 159, N1-(4-(5-(pyridin-3-yl)-1H-pyrazolo[3,4-c]pyridin-3-yl)pyridin-2-yl)ethane-1,2-diamine]	0.941 nM
Cc1ccc(-c2n[nH]c3cnc(-c4cccnc4)cc23)nc1N1CC(N2CCNC(=O)C2)C1 [Example 426, 4-(1-(3-methyl-6-(5-(pyridin-3-yl)-1H-pyrazolo[3,4-c]pyridin-3-yl)pyridin-2-yl)azetidin-3-yl)piperazin-2-one]	0.46 nM
CCn1cc(-c2cc3c(-c4cccc(NC5CCCCNC5)n4)n[nH]c3cn2)cn1 (stereo not shown) [Example 513, N-(6-(5-(1-ethyl-1H-pyrazol-4-yl)-1H-pyrazolo[3,4-c]pyridin-3-yl)pyridin-2-yl)azepan-3-amine]	0.055 nM
CN1C(=O)CN(c2cc3c(-c4ccccc4)n[nH]c3cn2)C1=O [Example 355, 3-methyl-1-(3-phenyl-1H-pyrazolo[3,4-c]pyridin-5-yl)imidazolidine-2,4-dione]	809 nM
c1cncc(-c2cc3c(-c4cccc(N5CCNCC5)n4)n[nH]c3cn2)c1 [Example 162, 3-(6-(piperazin-1-yl)pyridin-2-yl)-5-(pyridin-3-yl)-1H-pyrazolo[3,4-c]pyridine]	0.037 nM
CN1CCN(c2cc3c(-c4cnn(C)c4)n[nH]c3cn2)CC1=O [Example 331, 1-methyl-4-(3-(1-methyl-1H-pyrazol-4-yl)-1H-pyrazolo[3,4-c]pyridin-5-yl)piperazin-2-one]	721 nM
Cn1cc(-c2cc3c(-c4cccc(NCC(C)(C)O)n4)n[nH]c3cn2)cn1 [Example 297, 2-methyl-1-(6-(5-(1-methyl-1H-pyrazol-4-yl)-1H-pyrazolo[3,4-c]pyridin-3-yl)pyridin-2-ylamino)propan-2-ol]	0.034 nM
CCn1cc(-c2cc3c(-c4cccc(N5CCC[C@@H](NC)C5)n4)n[nH]c3cn2)cn1 [Example 482, (R)-1-(6-(5-(1-ethyl-1H-pyrazol-4-yl)-1H-pyrazolo[3,4-c]pyridin-3-yl)pyridin-2-yl)-N-methylpiperidin-3-amine]	0.147 nM
N[C@H]1CCCN(c2nc(-c3n[nH]c4cnc(-c5cccnc5)cc34)ccc2C2CC2)C1 [Example 485, (S)-1-(3-cyclopropyl-6-(5-(pyridin-3-yl)-1H-pyrazolo[3,4-c]pyridin-3-yl)pyridin-2-yl)piperidin-3-amine]	0.022 nM
Cc1n[nH]c2cnc(-c3cccnc3)cc12 [Example 101, 3-methyl-5-(pyridin-3-yl)-1H-pyrazolo[3,4-c]pyridine]	190 nM
O=C(NC1CCNCC1)c1cccc(-c2n[nH]c3cnc(-c4cccnc4)cc23)n1 [Example 337, N-(piperidin-4-yl)-6-(5-(pyridin-3-yl)-1H-pyrazolo[3,4-c]pyridin-3-yl)picolinamide]	30.5 nM
N[C@H]1CCN(c2ccc(-c3n[nH]c4cnc(-c5cccnc5)cc34)cn2)C1 [Example 202, (S)-1-(5-(5-(pyridin-3-yl)-1H-pyrazolo[3,4-c]pyridin-3-yl)pyridin-2-yl)pyrrolidin-3-amine]	1 nM

Further compounds by falling Ki, results first:

Ki	Structure (SMILES)
85 nM	N[C@H]1CCCN(c2cccc(-c3n[nH]c4cnc(N5CCOC5=O)cc34)n2)C1 [Example 374, (S)-3-(3-(6-(3-aminopiperidin-1-yl)pyridin-2-yl)-1H-pyrazolo[3,4-c]pyridin-5-yl)oxazolidin-2-one]
38.5 nM	CN1CCN(c2cc3c(-c4cccc(N5CCNCC5)n4)n[nH]c3cn2)CC1=O [Example 223, 1-methyl-4-(3-(6-(piperazin-1-yl)pyridin-2-yl)-1H-pyrazolo[3,4-c]pyridin-5-yl)piperazin-2-one]
4.78 nM	Cc1n[nH]c2cnc(-c3cncc(N4CCC[C@H](N)C4)n3)cc12 [Example 120, (S)-1-(6-(3-methyl-1H-pyrazolo[3,4-c]pyridin-5-yl)pyrazin-2-yl)piperidin-3-amine]
3.9 nM	NC(=O)[C@@H]1CCCN1c1ccc(-c2n[nH]c3cnc(-c4cccnc4)cc23)nc1 [Example 344, (S)-1-(6-(5-(pyridin-3-yl)-1H-pyrazolo[3,4-c]pyridin-3-yl)pyridin-3-yl)pyrrolidine-2-carboxamide]
2.63 nM	c1cncc(-c2cc3c(-c4cc[nH]n4)n[nH]c3cn2)c1 [Example 193, 3-(1H-pyrazol-3-yl)-5-(pyridin-3-yl)-1H-pyrazolo[3,4-c]pyridine]
0.333 nM	Cn1cc(-c2cc3c(-c4ccc(Br)c(N5CCC[C@H](O)C5)n4)n[nH]c3cn2)cn1 [Example 393, (S)-1-(3-bromo-6-(5-(1-methyl-1H-pyrazol-4-yl)-1H-pyrazolo[3,4-c]pyridin-3-yl)pyridin-2-yl)piperidin-3-ol]
0.3 nM	N[C@@H]1CCC[C@H](Nc2cccc(-c3n[nH]c4cnc(-c5cccnc5)cc34)n2)C1 [Example 239, (1S,3R)—N1-(6-(5-(pyridin-3-yl)-1H-pyrazolo[3,4-c]pyridin-3-yl)pyridin-2-yl)cyclohexane-1,3-diamine]
0.03 nM	Cn1cc(-c2cc3c(-c4ccc(Br)c(N5CCC(N)CC5)n4)n[nH]c3cn2)cn1 [Example 392, 1-(3-bromo-6-(5-(1-methyl-1H-pyrazol-4-yl)-1H-pyrazolo[3,4-c]pyridin-3-yl)pyridin-2-yl)piperidin-4-amine]
0.017 nM	N[C@H]1CCCN(c2nc(-c3n[nH]c4cnc(-c5cccnc5)cc34)ccc2Br)C1 [Example 289, (S)-1-(3-bromo-6-(5-(pyridin-3-yl)-1H-pyrazolo[3,4-c]pyridin-3-yl)pyridin-2-yl)piperidin-3-amine]
